Data as given in US11040016B2, “Composition for alleviating, preventing or treating female menopausal symptoms, containing, as active ingredient, pinitol, D-chiro-inositol or analog compounds thereof” (DY NATURAL CO., LTD, priority 2016, dated 2021).

Legend:
[1] = test system: 17β-estradiol; assay: 17β-estradiol level in the blood of white rats after 8 weeks oral administration (ELISA); format: in vivo, Sprague-Dawley (SD) white rats; details: female SD rats, 10, 20, 40 mg/kg oral once a day for 8 weeks, vs physiological saline
Protocol: Pinitol and D-chiro-inositol were purchased from Biosearch Life (Camino de Purchil, 66. 18004 Granada, Spain). Six-month-old female Sprague-Dawley (SD) white rats (Orient, Korea) were divided into a test group administered with pinitol or D-chiro-inositol and a control group administered with physiological saline while ten animals were used in the test for each of the groups. The rats were bred in a breeding room controlled under a temperature of 22±1° C., humidity of 55±1%, and 12-hour light/dark cycle. The rats were given free access to food and water, and for 7 days after entrance, the rats were acclimated for the breeding environment, and then were used for tests. Physiological saline and pinitol or D-chiro-inositol were orally administered at various doses (10 mg/kg, 20 mg/kg, or 40 mg/kg) at the same amount once a day for 8 weeks. […] The levels of hormones and proteins in the blood were measured according to the manufacturer's manual by using the ELISA kit (Enzo Life Sciences, U.S.A.) for measurement of 17β-estradiol or sex-hormone binding globulin (SHBG) in the blood. […] After the completion of the last administration, the 17β-estradiol and sex-hormone binding globulin (SHBG) levels in the blood were measured by ELISA kit. […]

[2] = test system: sex-hormone binding globulin (SHBG); assay: SHBG level in the blood of white rats after 8 weeks oral administration (ELISA); format: in vivo, Sprague-Dawley (SD) white rats; details: female SD rats
Protocol: Pinitol and D-chiro-inositol were purchased from Biosearch Life (Camino de Purchil, 66. 18004 Granada, Spain). Six-month-old female Sprague-Dawley (SD) white rats (Orient, Korea) were divided into a test group administered with pinitol or D-chiro-inositol and a control group administered with physiological saline while ten animals were used in the test for each of the groups. The rats were bred in a breeding room controlled under a temperature of 22±1° C., humidity of 55±1%, and 12-hour light/dark cycle. The rats were given free access to food and water, and for 7 days after entrance, the rats were acclimated for the breeding environment, and then were used for tests. Physiological saline and pinitol or D-chiro-inositol were orally administered at various doses (10 mg/kg, 20 mg/kg, or 40 mg/kg) at the same amount once a day for 8 weeks. After the last oral administration, the rats were fasted overnight and then anesthetized with ether, and the abdomen was cut open, and then blood was collected from the abdominal vein. The collected blood was transferred to a heparinized tube, followed by centrifugation at 2.500 rpm for 15 minutes for 4° C., thereby separating serum and plasma. The separated blood was stored at −80° C. until the next test. The levels of hormones and proteins in the blood were measured according to the manufacturer's manual by using the ELISA kit (Enzo Life Sciences, U.S.A.) for measurement of 17β-estradiol or sex-hormone binding globulin (SHBG) in the blood. In order to analyze the effects of pinitol or D-chiro-inositol (DCI) on the levels or activity of female hormones, which are blood indexes associated with menopausal symptoms, in female mature Sprague-Dawley (SD) white rats, a test was conducted. The physiological saline for the control group or pinitol or D-chiro-inositol (10 mg/kg, 20 mg/kg, and 40 mg/kg) for the test groups were orally administered at the predetermined time once a day for 8 weeks. After the completion of the last administration, the 17β-estradiol and sex-hormone binding globulin (SHBG) levels in the blood were measured by ELISA kit. […] Therefore, it could be confirmed that the SHBG level in the blood was decreased by pinitol or D-chiro-inositol, leading to increases in activity of female hormones. According to the test results, it was confirmed that both pinitol and D-chiro-inositol can alleviate female menopause symptoms by increasing the 17β-estradiol levels in the blood and decreasing the SHBG levels in the blood.

[3] = test system: 17β-estradiol; assay: 17β-estradiol level in the blood of middle-aged women after 8 weeks administration (ELISA); format: in vivo; details: middle-aged women, 600, 1,200, 2,400 mg a day for 8 weeks
Protocol: (§1) Forty middle-aged women aged 40 or more were divided into four groups each having ten women, and the four groups were designated as a control group taking a placebo and three test groups taking pinitol. Similarly, forty middle-aged women aged 40 or more were divided into four groups each having ten women, and the four groups were designated as a control group taking a placebo and three test groups taking D-chiro-inositol. Thereafter, the placebo, pinitol, or D-chiro-inositol was administered at various concentrations for 8 weeks in a double-blind fashion. The pinitol, D-chiro-inositol, or placebo was administered at 600 mg, 1,200 mg, and 2,400 mg a day. The blood was taken from the arm vein at the same time, 2:00 pm, before intake and after the last intake, and then transferred to heparinized tubes, followed by centrifugation at 2,500 rpm (4° C.) for 15 minutes, and therefore, the plasma was separated by transfer to new tubes. The separated plasma was used to measure sex hormone levels in the blood. The levels of hormones and proteins in the blood were measured according to the manufacturer's manual by using the ELISA kit (Enzo Life Sciences, U.S.A.) for measurement of 17β-estradiol or sex-hormone binding globulin (SHBG) in the blood. In order to analyze the effects of pinitol and D-chiro-inositol on sex hormones in middle-aged women, forty middle-aged 40 or more were divided into four groups each having ten women, and the four groups were designated as a control group taking a placebo and three test groups taking pinitol. Similarly, forty middle-aged women aged 40 or more were divided into four groups each having ten women, and the four groups were designated as a control group taking a placebo and three test groups taking D-chiro-inositol. Thereafter, the placebo, pinitol, or D-chiro-inositol was administered at various concentrations for 8 weeks in a double-blind fashion. The pinitol or D-chiro-inositol was administered at 600 mg, 1,200 mg, and 2,400 mg a day for 8 weeks. As a result of the test, there was no significant change in 17β-estradiol level in the blood in the women between pre- and pro-administration of the placebo. […] According to the test results, it could be confirmed that, similar to the results in the white rats, pinitol and D-chiro-inositol can alleviate female menopause symptoms by increasing the 17β-estradiol levels in the blood and decreasing the SHBG levels in the blood.

[4] = test system: sex-hormone binding globulin (SHBG); assay: SHBG level in the blood of middle-aged women after 8 weeks administration (ELISA); format: in vivo
Protocol: as §1, with “The pinitol, D-chiro-inositol, or placebo was administered at 600 mg, 1,200 mg, and 2,400 mg a day.” left out, “The pinitol or D-chiro-inositol was administered at 600 mg, 1,200 mg, and 2,400 mg a day for 8 weeks.” left out

[5] = test system: middle-aged women; assay: Menopause Rating Scale (MRS) survey in middle-aged women; format: in vivo; details: for alleviation rate of menopausal symptoms: MRS vs placebo; for MRS score post-taking compared with placebo taking group and pre-taking: middle-aged women, 600, 1,200, 2,400 mg once a day for 8 weeks
Protocol: Forty middle-aged women aged 40 or more were divided into four groups each having ten women, and the four groups were designated as a control group taking a placebo and three test groups taking pinitol. Similarly, forty middle-aged women aged 40 or more were divided into four groups each having ten women, and the four groups were designated as a control group taking a placebo and three test groups taking D-chiro-inositol. Thereafter, the placebo, pinitol, or D-chiro-inositol was administered at various concentrations for 8 weeks in a double-blind fashion. The pinitol, D-chiro-inositol, or placebo was administered at 600 mg, 1,200 mg, and 2,400 mg a day. The blood was taken from the arm vein at the same time, 2:00 pm, before intake and after the last intake, and then transferred to heparinized tubes, followed by centrifugation at 2,500 rpm (4° C.) for 15 minutes, and therefore, the plasma was separated by transfer to new tubes. The separated plasma was used to measure sex hormone levels in the blood. Since subjective symptoms account for a large proportion of menopausal symptoms, several measures are used to assess the degrees of menopausal clinical symptoms. For assessment of menopausal clinical symptoms, Kupperman's index has been used for a long time. However, questions of vaginal dryness, reduction of sexual desire, and the like, are missing in the Kupperman's index, and therefore, the Menopause Rating Scale (MRS) and the Menopause-Specific Quality of Life Questionnaire (MENQOL), which are questionnaires supplementing such questions, are being widely used in current clinical trials. The MRS has been globally recognized to have reliability and feasibility due to its advantages of having a small number of questions, a total of 11 questions, and being simple and convenient, and thus the MRS is being recited in many studies (Table 1). In the present invention, the severity of menopausal symptoms was measured and analyzed by allowing the above middle-aged women clinical subjects to fill out the MRS questionnaire. The alleviating effects on female menopause symptoms were assessed by allowing the middle-aged women clinical subjects to fill out the Menopause Rating Scale (MRS) questionnaire pre- and post-intake of the placebo, pinitol, or D-chiro-inositol. [table] In order to assess the alleviating effects of female menopause symptoms by pinitol and D-chiro-inositol, a Korean-version Menopause Rating Scale (MRS) survey was performed. Eighty middle-aged 40 or more were divided into four groups, a placebo group and pinitol administration groups, each having ten women, and similarly, were divided into four groups, a placebo group and D-chiro-inositol administration groups, each having ten women. Thereafter, the placebo and 600 mg, 1,200 mg, and 2,400 mg of pinitol or D-chiro-inositol were administered once a day for 8 weeks in a double-blind fashion. The women were allowed to fill out the Menopause Rating Scale (MRS) questionnaire before and after taking the placebo, pinitol, or D-chiro-inositol. The scores of the MRS questionnaire were calculated as a total score. The 0-4 points indicate a good menopausal state, which is a smooth menopause state. A total of 5-8 points indicate a slight menopausal state, requiring management. A total of 9-15 points indicate a severe menopausal state, requiring precise diagnosis and treatment by specialists because of menopausal diseases. Last, a total of 16 points or more indicates an extremely severe menopausal state, thereby urgently requiring therapy through minute management and long-term plans. […] The MRS measurement results could confirm that pinitol alleviated female menopause symptoms caused by female hormone reduction, such as reduction of sexual desire, insomnia, urogenital diseases and infections, joint and muscular diseases, depression, and hypersensitiveness.

[6] = 10 mg/kg oral once a day for 8 weeks
[7] = 20 mg/kg oral once a day for 8 weeks
[8] = 40 mg/kg oral once a day for 8 weeks
[9] = middle-aged women, 600 mg a day for 8 weeks
[10] = middle-aged women, 1,200 mg a day for 8 weeks
[11] = middle-aged women, 1,400 mg administration group, 8 weeks
[12] = middle-aged women, 600 mg once a day for 8 weeks
[13] = middle-aged women, 1,200 mg once a day for 8 weeks
[14] = middle-aged women, 2,400 mg once a day for 8 weeks

SMILES | 17β-estradiol level in the blood compared with control group [1] | decrease of SHBG level in the blood compared with control group [2, 6] | decrease of SHBG level in the blood compared with control group [2, 7] [nmol/L] | decrease of SHBG level in the blood compared with control group [2, 8] [nmol/L] | 17β-estradiol level in the blood compared with placebo administration group [3] | 17β-estradiol level in the blood, pre- versus post-administration [3] | decrease of SHBG level in the blood compared with placebo administration group [4, 9] | decrease of SHBG level in the blood compared with placebo administration group [4, 10] [nmol/L] | decrease of SHBG level in the blood compared with placebo administration group [4, 11] [nmol/L] | decrease of average MRS score compared with placebo group [5, 12] [points] | alleviation rate of menopausal symptoms [5, 12] | decrease of average MRS score compared with placebo group [5, 13] [points] | alleviation rate of menopausal symptoms [5, 13] [%] | decrease of average MRS score compared with placebo group [5, 14] [points] | alleviation rate of menopausal symptoms [5, 14] [%] | MRS score post-taking compared with placebo taking group and pre-taking [5] | SHBG level in the blood, pre- versus post-administration ([4]; middle-aged women, 8 weeks)
O[C@H]1[C@H](O)[C@H](O)[C@@H](O)[C@H](O)[C@H]1O [D-chiro-inositol] | significantly increased in a concentration-dependent manner | about 7.0 nmol/L | ~16.2 | ~21.1 | significantly increased in a concentration-dependent manner | no particular difference | about 8.7 nmol/L | ~15.9 | ~18.4 | 5.7 | about 40.7% | 9.7 | ~69.3 | 10.3 | ~73.6 | significantly decreased | 
CO[C@H]1[C@H](O)[C@@H](O)[C@@H](O)[C@H](O)[C@@H]1O [pinitol] | significantly increased in a concentration-dependent manner | about 4.2 nmol/L | ~10.0 | ~12.2 | significantly increased in a concentration-dependent manner | no particular difference | about 8.3 nmol/L | ~16.0 | ~18.6 | 4.3 | about 32.6% | 8.4 | ~63.6 | 9.1 | ~68.9 | significantly decreased | no particular difference
